Patent US8455226B2, “Method for producing metal nanoparticles” (Janssen Pharmaceutica N.V., priority 2006, dated 2013)

Key:
Escherichia coli = assay: Antimicrobial activity on a solid growth medium for Escherichia coli (Example 4); type: cell-based; conditions: 24 hours at 30° C., plated 2×10^6 CFU/mL
Procedure: 100 mL of a silver suspension with an Ag concentration of 5 mM, in the form of nanosilver deposited on Lactobacillus fermentum biomass as obtained in example 1, was plated onto a solidified growth medium for culturing Escherichia coli (Luria Bertani Agar). As a control, 100 mL of a solution of 5 mM AgNO3 in sterile milliQ water with 0.1 N NaOH were plated on the same growth medium. This setting agreed with a total amount of 0.05 mg Ag per agar plate, or 11 mg Ag per m^2 of total surface area. This experiment was repeated with twofold the latter concentrations, i.e. with 0.11 mg Ag per agar plate or 22 mg Ag per m^2 of total surface area.
By plating these silver suspensions, a homogeneous layer of Ag(I)NO3, or nano-Ag respectively, was applied onto the solidified growth media.
After pre-treating the solidified growth medium in this way, 100 μL of a 2×10^6 CFU/mL Escherichia coli suspension in physiological solution (8.5 g NaCl/L in sterile water) was plated on the pre-treated agar plates. The plates were then incubated during 24 hours at 30° C. and colonies were counted. The count results are illustrated by FIG. 1. At nano-Ag concentrations of 11 mg Ag/m^2 and 22 mg Ag/m^2, no viable cells of E. coli could be detected on the treated solid growth medium (<detection limit (D.L.)=1×10^1 CFU/ml). […]

some bacteria = conditions: cited from earlier work

Compound	viable cells of E. coli on treated solid growth medium (Escherichia coli; 11 mg Ag/m^2)	viable cells of E. coli on treated solid growth medium (Escherichia coli; 22 mg Ag/m^2)	concentration known to inhibit the growth of some bacteria (some bacteria) [mg/L]
O=[N+]([O-])[O-].[Ag+] [Ag(I)NO3, AgNO3]	4×10^2 CFU/ml	1×10^2 CFU/ml	
OO [Hydrogen peroxide]			25
